Consider ten molecules from patent US20190178889A1, “HIGH-THROUGHPUT SCREENING ASSAY” (BellBrook Labs, priority 2016, published 2019).

pEC50, pIC50, pKd: −log10 of the molar value.

For data set [1], the system named is cGAMP mAb6. Put plainly: competitive FP immunoassay, cGAMP mAb6 with cGAMP-Atto 633 tracer. In kind it is binding, mouse. As to conditions: for binding to mAb6: ATP and GTP at more than 10^4-fold excess over half-maximal cGAMP concentration. The text has this:
Importantly, neither of these other cyclic dinucleotides are known to be endogenous in mammalian cells.

In data set [2] the target is scFvs against haptens. The conditions noted are these: affinity-matured scFvs, yeast display; read-out: Kds of scFvs; cited from earlier work.
For data set [3], the system named is mouse antiserum (cGAMP antibody). Put plainly: FP binding of mouse antiserum to fluorescein-cGAMP tracer with competitor nucleotides. The conditions noted are these: competitor 10 μM, tracer 4 nM.
Data set [4] concerns the target T1, full length human cGAS (Homo sapiens, UniProt Q8N884). Put plainly: cGAS enzyme assay with cGAMP FP detection. In kind it is biochemical. Also on record: Assays using highly purified, full length human cGAS were performed; 6xHis; made in house; host or cells: E. coli BL21 DE3 (Rosetta DE3, Novagen), T7 expression vector. The protocol: FIG. 9 includes A) a plot showing detection of purified, full-length cGAS: cGAS enzyme titrations show a dose-dependent assay signal, as discussed in more detail in Example 2, below; N- and C-terminal His-tagged cGAS was prepared according to Example 4 (100 μM ATP and GTP, 62.5 nM 45 bp ISD DNA, 60 min reactions); […]; C) Confirmation that recombinant hcGAS was activated by ds DNA; half maximal responses of 3.5 and 5.9 nM for HSV 60 and ISD 45, respectively; D) ATP and GTP dependence: ATP and GTP were titrated separately and simultaneously; half maximal cGAS activity at 80 μM of both nucleotide; E) Dose response for cGAS inhibition by two flavonoids; F) a plot showing the results of an interference screen: the library of 1280 pharmacologically active compounds, available from Sigma (the “LOPAC library”) was used to test for compound interference with detection reagents as discussed in more detail in Example 2, below; wells contained all cGAS enzyme reaction components except the cGAS enzyme; positive controls contained 1 μM cGAMP, negative controls contained no cGAMP; […]; negative controls lacked dsDNA required for cGAS activation; H) an image of a coomassie blue stained SDS gel (top) and western blot (bottom) of purified 6×HIS-cGAS (Lane 1) and cGAS-6×His (Lane 2) prepared according to Example 4; Z=0.62, Z′=0.7.
cGAS is one of four oligoadenylate synthases, nucleic acid sensors that activate innate immunity via production of short, 2′-5′ oligoadenylate secondary messengers (35); […]. Binding of dsDNA and DNA:RNA hybrids to cGAS induces a conformational transition in an activation loop, not unlike the displacement of inhibitory domains by autophosphorylation in protein kinases (Zhang, et al., 2014, Cell Rep 6(3):421-30; Fabbro, et al., 2012, Methods Mol Biol 795:1-34). The full-length enzyme was used to insure that all of the potential allosteric sites were present and that the enzyme was able to sample its full conformational repertoire. Prior to running cGAS enzyme reactions, the effect of cGAS reaction components, including ATP and GTP Brij 35, NaCl, Brij 35, and dsDNA on the detection reagents was examined; no significant effects were observed. Assays using highly purified, full length human cGAS were performed. The full-length human cGAS was prepared according to Example 4, below. Additionally, third-party-provided cGAS (Sun, et al., 2013, Science 339(6121):786-91) was used for comparative purposes. Some enzyme assays were run in kinetic mode; i.e., the detection reagents were present during the enzyme reactions, and the plates were read periodically, and others were run in endpoint mode, using EDTA to quench the reaction.
. The enzyme data was graphed as the net change in polarization; […]. Conversion of polarization to cGAMP formation using a standard curve confirmed that product formation was linear with cGAS concentration (FIG. 9B); […]. There was essentially no quantitative activity data available for cGAS prior to the instant disclosure and the kcat values of approximately 1 min^−1 determined herein (at non-saturating ATP and GTP) were the first reported cGAS kinetic parameters. The generation of a good signal (i.e., ≥100 mP) with less than 10 nM cGAS is important for two reasons. It reduces the time and cost to prepare for a large screen by minimizing enzyme usage; for example, screening 1M (one million) compounds at 10 nM cGAS will require only 12 mg of enzyme. […]

The target in data set [5] is T1, full length human cGAS. Put plainly: cGAS enzyme assay with cGAMP TR-FRET detection.
Where [6] appears, read: both nucleotides combined (titrated simultaneously), read-out: half maximal concentration of ATP and GTP for cGAS activity.

T1 sequence (Q8N884 whole entry): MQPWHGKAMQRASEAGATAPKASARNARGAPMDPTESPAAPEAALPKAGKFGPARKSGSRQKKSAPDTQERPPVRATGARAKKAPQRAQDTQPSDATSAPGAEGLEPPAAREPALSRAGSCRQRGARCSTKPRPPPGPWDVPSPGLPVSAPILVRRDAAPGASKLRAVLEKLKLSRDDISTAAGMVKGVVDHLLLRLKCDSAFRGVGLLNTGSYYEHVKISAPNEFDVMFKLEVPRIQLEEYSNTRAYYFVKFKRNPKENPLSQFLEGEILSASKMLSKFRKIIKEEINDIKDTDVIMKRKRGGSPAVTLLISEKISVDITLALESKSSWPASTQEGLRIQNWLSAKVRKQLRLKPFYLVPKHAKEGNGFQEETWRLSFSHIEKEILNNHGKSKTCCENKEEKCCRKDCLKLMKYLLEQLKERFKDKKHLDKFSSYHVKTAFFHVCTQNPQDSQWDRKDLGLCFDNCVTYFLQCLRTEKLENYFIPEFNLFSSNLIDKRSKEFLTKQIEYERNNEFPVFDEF

For the molecule `Nc1nc2c(ncn2C2OC3COP(=O)(O)OC4C(O)C(COP(=O)(O)OC3C2O)OC4n2cnc3c(=O)[nH]c(N)nc32)c(=O)[nH]1` (stereo not drawn) [2′,3′ cyclic di-GMP], in data set [1] (FP competition curves, FIG. 8E, read-out: 1050 values (competition, displacement of tracer from mAb6)), the pIC50 was 6.60.
In the case of `O=C(O)CN1CCN(CC(=O)O)CCN(CC(=O)O)CCN(CC(=O)O)CC1` [DOTA], the pKd in data set [2] is 11.09.
Regarding `Nc1nc2c(ncn2[C@@H]2O[C@@H]3COP(=O)(O)O[C@H]4[C@@H](O)[C@H](n5cnc6c(N)ncnc65)O[C@@H]4COP(=O)(O)O[C@H]3[C@H]2O)c(=O)[nH]1` [3′,3′ cGAMP], the “binding to mAb6” value in data set [1] (FP competition curves, FIG. 8E) is “did not bind”.
For the molecule `Nc1nc2c(ncn2[C@@H]2O[C@@H]3COP(=O)(O)O[C@H]4[C@@H](O)[C@H](n5cnc6c(N)ncnc65)O[C@@H]4COP(=O)(O)O[C@@H]2[C@@H]3O)c(=O)[nH]1` [2′,3′ cGAMP, G(2′-5′)pA(3′-5′)p], the “effect of excess competitor on antiserum/tracer binding curve” value (“effect … on antiserum/tracer binding curve” for short) in data set [3] is “right-shifted by approximately two orders of magnitude”. For the same molecule, the polarization shift entry in data set [1] (at 500 nM cGAMP, 0.5-0.6 μg/ml mAb6) is “approximately 130 mP”.
For the molecule “cGAS-His: full-length human cGAS having a 6×His at the C-terminus”, the Kcat in data set [4] (determined by FP) is 1.21; in data set [5] (determined by TR-FRET) it was 1.58.
Turning to `Nc1ncnc2c1ncn2[C@@H]1O[C@H](COP(=O)(O)OP(=O)(O)O)[C@@H](O)[C@H]1O` [ADP], the “binding to mAb6” value in data set [1] (FP competition curves, FIG. 8E) is reported as “lack of binding”.
In the case of `Nc1ncnc2c1ncn2[C@@H]1O[C@H](COP(=O)(O)OP(=O)(O)OP(=O)(O)O)[C@@H](O)[C@H]1O` [ATP], in data set [3], the “effect … on antiserum/tracer binding curve” value is given as “no effect”. Moreover, in data set [1] (FP competition curves, FIG. 8E), the “binding to mAb6” value is recorded as “no detectable binding”. Further, in data set [4] (setting [6]), the pEC50 is 4.10.
In the case of `Nc1nc2c(ncn2[C@@H]2O[C@@H]3COP(=O)(O)O[C@H]3[C@H]2O)c(=O)[nH]1` [cGMP], in data set [1] (FP competition curves, FIG. 8E), the “binding to mAb6” value is given as “lack of binding”.
As for `Nc1nc2c(ncn2[C@@H]2O[C@H](COP(=O)(O)OP(=O)(O)OP(=O)(O)O)[C@@H](O)[C@H]2O)c(=O)[nH]1` [GTP], in data set [3], the “effect … on antiserum/tracer binding curve” value is “no effect”. Besides, in data set [1] (FP competition curves, FIG. 8E), the “binding to mAb6” value is “no detectable binding”. Besides, the pEC50 in data set [4] (setting [6]) was 4.10.
Regarding “cGAS: highly purified, full length human cyclic GMP-AMP synthase”, the pEC50 in data set [4] (FP assay, depending on the preparation, 100 μM ATP and GTP, 62.5 nM 45 bp ISD DNA, 60 min, read-out: half-maximal change (EC50) of polarization, cGAS enzyme titration) was 7.92 to 8.22; in data set [5] (read-out: EC50, cGAS enzyme titration, TR-FRET assay, FIG. 10E) it was roughly 8.30. Also, the Kcat entry in data set [4] (cGAMP FP assay, non-saturating ATP and GTP) is reported as “approximately 1 min^−1”.
